Results as given in patent US10646490B2, “Thieno- and pyrrolopyrimidine analogues and prodrugs thereof as anticancer agents and methods of use thereof” (UNIVERSITY OF MARYLAND, BALTIMORE COUNTY, priority 2015, dated 2020).
Read-outs that look alike come from different tables or passages of the source.

Tests used:
MDA-MB-231 = assay: Cancer cell line activity screening; format: cell-based, human
[1] = tested on: MIA Pa-Ca-2 pancreatic cancer cells; assay: Cancer cell line activity screening; format: cell-based
[2] = Maximum tolerated dose / toxicity in mice; format: in vivo; settings: for MTD: mouse, in vivo
Text: (§1) In order to investigate the PK profile of these compounds, a series of halogenated pyrrolo[3,2-d]pyrimidine compounds was synthesized and first tested for activity in various cancer cell lines followed by a mouse model. […] This indicates a wide variance in activity and toxicity that necessitated the synthesis of a second series of compounds with N5 alkyl substitutions in an effort to slow the rate of metabolism, which was thought to be leading to the toxicity.

[3] = Mouse pharmacokinetics, plasma half-life; format: in vivo; settings: for t1/2: 10 mg/kg injection
Procedure: Further, mouse studies on 7 were carried out at The Cancer Center Pharmacology Core (CCPC, Colorado State University) by injection of 10 mg/kg of the compound, followed by euthanization at 15, 30, 60, 90, 120, 240, and 480 minutes. […] Mouse studies on 9 were performed in the same manner.

[4] = Stability in aqueous buffer; format: physicochemical
[5] = Stability in biological media; format: in vitro ADME
A549 = assay: Cancer cell line activity screening; format: cell-based
MOLM14 = assay: Cancer cell line activity screening; format: cell-based
[6] = tested on: various cancer cell lines; assay: Cancer cell line activity screening, panel; format: cell-based; settings: Table 5; read-out: IC50 values as low as
Text: as §1

Row | IC50 (A549) | IC50 (MDA-MB-231) | IC50 [1] | IC50 (MOLM14) | Structure (SMILES) | IC50 (MDA-MB-231; Homo sapiens, MDA-MB-231) | IC50 ([1]; Homo sapiens, MIA PaCa-2) | maximum tolerated dose (MTD) ([2]; mice) | MTD ([2]; mice) | t1/2 [3] | duration stable in aqueous buffer (for up to) [4] | time to undetectable in biological media [5] | IC50 (A549; Homo sapiens, A549) | IC50 (MOLM14; Homo sapiens, MOLM-14) | IC50 [6] | toxicity higher than 7 ([2]; vs 7) | time to little to no detection in mouse plasma [3]
1 |  |  |  |  | Cc1ccc(S(=O)(=O)n2cc(I)c3nc(Cl)nc(Cl)c32)cc1 [Compound 9, 2,4-Dichloro-7-iodo-5-tosyl-pyrrolo[3,2-d]pyrimidine] | 790 ± 40 nM | 500 ± 20 nM | 40 mg/kg | 5 to 40 mg/kg | 32.7 min | up to 24 hours | ≤ 1 hour |  |  |  |  | 
2 |  |  |  |  | Clc1nc(Cl)c2[nH]cc(Br)c2n1 [Compound 6] | 400 ± 300 nM | 14 ± 1 nM |  | 5 to 40 mg/kg |  |  |  | 50 ± 20 nM | 23 ± 4 nM | ≥ 14 nM | 2 fold | 
3 |  |  |  |  | Clc1nc(Cl)c2c(n1)c(I)cn2COCc1ccccc1 [Compound 8, 5-((Benzyloxy)methyl)-2,4-dichloro-7-iodo-pyrrolo[3,2-d]pyrimidine] | 6100 ± 400 nM | 7300 ± 800 nM |  |  |  |  |  |  |  |  |  | 
4 |  |  |  |  | Clc1nc(Cl)c2[nH]cc(I)c2n1 [Compound 20, 7-iodo-2,4-dichloro pyrrolo[3,2-d]pyrimidine] | 1200 ± 400 nM | 370 ± 50 nM |  | 5 to 40 mg/kg | 30.7 min |  |  | 1000 ± 100 nM | 550 ± 70 nM | ≥ 14 nM |  | ≤ 70 min
5 | 14500 ± 3500 nM | 9700 ± 9700 nM | 5300 ± 1000 nM | 9500 ± 3100 nM | Clc1nc(Cl)c2[nH]ccc2n1 [Compound 19, 2,4-Dichloropyrrolo[3,2-d]pyrimidine] |  |  |  |  |  |  |  |  |  |  |  | 
